Assay results as given in PubChem BioAssay AID248 (DTP/NCI, 2004).
“And” between values parts separate entries of the source, which are not always exact repeats. Equal values may be shown once. Inconclusive results and toxic doses are left out.

Tested on: L1210 leukemia ip in BDF1 mice, survival T/C
Assay: NCI In Vivo Anticancer Drug Screen. Data for tumor model L1210 Leukemia (intraperitoneal) in B6D2F1 (BDF1) mice
Settings: endpoint: mean survival time, higher = longer survival
How it was run: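 Read-out is survival time, reported as the treated-group measurement over the vehicle-control measurement.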

[1] = dose: 100.0 mg/kg/injection, schedule: Q01DX001 (ip), vehicle: saline
[2] = dose: 200.0 mg/kg/injection, schedule: Q01DX001 (ip), vehicle: saline
[3] = dose: 400.0 mg/kg/injection, schedule: Q01DX001 (ip), vehicle: saline
[4] = dose: 100.0 mg/kg/injection, schedule: Q01DX009 (ip), vehicle: Klucel (hydroxypropylcellulose) (HPC)
[5] = dose: 100.0 mg/kg/injection, schedule: Q04DX003 (ip), vehicle: Klucel (hydroxypropylcellulose) (HPC)
[6] = dose: 200.0 mg/kg/injection, schedule: Q04DX003 (ip), vehicle: Klucel (hydroxypropylcellulose) (HPC)
[7] = dose: 400.0 mg/kg/injection, schedule: Q01DX009 (ip), vehicle: Klucel (hydroxypropylcellulose) (HPC)
[8] = dose: 400.0 mg/kg/injection, schedule: Q04DX003 (ip), vehicle: Klucel (hydroxypropylcellulose) (HPC)
[9] = dose: 100.0 mg/kg/injection, schedule: Q01DX001 (ip), vehicle: Klucel (hydroxypropylcellulose) (HPC)
[10] = dose: 200.0 mg/kg/injection, schedule: Q01DX001 (ip), vehicle: Klucel (hydroxypropylcellulose) (HPC)
[11] = dose: 100.0 mg/kg/injection, schedule: Q01DX009 (ip), vehicle: saline with Tween-80
[12] = dose: 200.0 mg/kg/injection, schedule: Q01DX009 (ip), vehicle: Klucel (hydroxypropylcellulose) (HPC)

`Cc1cc[n+]2n1CC(O)C2` (centres undefined) was tested, and the T/C (dose: 50.0 mg/kg/injection, schedule: Q01DX001 (ip), vehicle: saline) was 102 % of control, the T/C [1] was 100 % of control and the T/C [2] was 96 % of control. For the same compound, the T/C [3] was 102 % of control.
With `CCOC(=O)c1cnc(SC)nc1Nc1cccc(Cl)c1` the T/C [4] was 97 % of control, the T/C [5] was 90 % of control and the T/C [6] was 92 % of control. The T/C [7] was 90 % of control and the T/C [8] was 88 % of control.
In the case of `CCOC(=O)c1cnc(SC)nc1Nc1ccccc1N`, the T/C (dose: 50.0 mg/kg/injection, schedule: Q01DX001 (ip), vehicle: Klucel (hydroxypropylcellulose) (HPC)) is reported as 94 % of control, the T/C [9] is reported as 94 % of control and the T/C [10] is reported as 101 % of control.
In the case of `COc1cc2c(cc1OC)C(NNC(C)=O)CCCC2` (centres undefined), the T/C [1] is reported as 97 % of control, the T/C [2] is reported as 97 % of control and the T/C [3] is reported as 103 % of control.
With `COc1ccccc1OC(=O)CCl` the T/C (dose: 25.0 mg/kg/injection, schedule: Q01DX009 (ip), vehicle: saline with Tween-80) was 90 % of control, the T/C (dose: 50.0 mg/kg/injection, schedule: Q01DX009 (ip), vehicle: saline with Tween-80) was 93 % of control and the T/C [11] was 93 % of control.
`Cc1cc(C)[n+]([O-])c(C)c1[N+](=O)[O-]` was tested, and the T/C [1] was 101 % of control and the T/C [2] was 101 % of control.
For `COc1ccccc1OC(=O)c1ccccc1O`, the T/C [1] was 107 % of control, the T/C (dose: 100.0 mg/kg/injection, schedule: Q04DX003 (ip), vehicle: saline) was 90 % of control and the T/C [2] was 100 % of control. The T/C (dose: 200.0 mg/kg/injection, schedule: Q04DX003 (ip), vehicle: saline) was 90 % of control, the T/C [3] was 94 % of control and the T/C (dose: 400.0 mg/kg/injection, schedule: Q04DX003 (ip), vehicle: saline) was 88 % of control.
In the case of `CC(C)CC1NC(C)(C)CO1` (centres undefined), the T/C (dose: 75.0 mg/kg/injection, schedule: Q01DX001 (ip), vehicle: carboxymethylcellulose (CMC)) is reported as 102 % of control, the T/C (dose: 150.0 mg/kg/injection, schedule: Q01DX001 (ip), vehicle: carboxymethylcellulose (CMC)) is reported as 95 % of control and the T/C (dose: 300.0 mg/kg/injection, schedule: Q01DX001 (ip), vehicle: carboxymethylcellulose (CMC)) is reported as 100 % of control.
With `CCOC(=O)C1=NNC(C(C)=O)(C(=O)OCC)C1CC` (centres undefined) the T/C [4] was 102 % of control, the T/C [12] was 95 % of control and the T/C [7] was 96 % of control.
`COc1ccc(CCCCO)cc1` was tested, and the T/C (dose: 100.0 mg/kg/injection, schedule: Q01DX001 (ip), vehicle: acetone) was 96 % of control, the T/C (dose: 200.0 mg/kg/injection, schedule: Q01DX001 (ip), vehicle: acetone) was 102 % of control and the T/C (dose: 400.0 mg/kg/injection, schedule: Q01DX001 (ip), vehicle: acetone) was 86 % of control.
For `C[C@]12CCC(=O)C=C1CC[C@H]1[C@@H]3CC[C@](O)(C(=O)CO)[C@@]3(C)CC(=O)[C@@]12SC(N)=O`, the T/C (dose: 100.0 mg/kg/injection, schedule: Q01DX001 (ip), vehicle: steriod suspending solution) was 92 % of control, the T/C (dose: 200.0 mg/kg/injection, schedule: Q01DX001 (ip), vehicle: steriod suspending solution) was 92 % of control and the T/C (dose: 400.0 mg/kg/injection, schedule: Q01DX001 (ip), vehicle: steriod suspending solution) was 104 % of control.
For `Clc1ccc2nsnc2c1`, the T/C [9] was 105 % of control and the T/C [10] was 114 % of control.
With `Oc1ccc2ccccc2c1/C=N/N1CCN(/N=C/c2c(O)ccc3ccccc23)CC1` the T/C [1] was 104 % of control, the T/C [2] was 96 % of control and the T/C [3] was 90 % of control.
`COC(=O)C(=O)c1ccccc1` was tested, and the T/C [11] was 101 % of control, the T/C (dose: 200.0 mg/kg/injection, schedule: Q01DX009 (ip), vehicle: saline with Tween-80) was 100 % of control and the T/C (dose: 400.0 mg/kg/injection, schedule: Q01DX009 (ip), vehicle: saline with Tween-80) was 89 % of control.
For `Cc1cc(C(=O)NC(CCC(=O)O)C(=O)O)cc(C)c1N(C)Cc1cnc2nc(N)nc(N)c2n1` (centres undefined), the T/C (dose: 3.13 mg/kg/injection, schedule: Q01DX009 (ip), vehicle: saline) was 158 % of control, the T/C (dose: 6.25 mg/kg/injection, schedule: Q01DX009 (ip), vehicle: saline) was 161 % of control and the T/C (dose: 12.5 mg/kg/injection, schedule: Q01DX009 (ip), vehicle: saline) was 153 % of control and 165 % of control. The T/C (dose: 50.0 mg/kg/injection, schedule: Q01DX009 (ip), vehicle: sodium bicarbonate) was 101 % of control.
For `C[CH2][Sn]([CH2]c1ccccc1)([c]1ccccc1)[c]1ccccc1`, the T/C [5] was 95 % of control, the T/C [6] was 101 % of control and the T/C [8] was 93 % of control.
`CC1(c2cccnc2)OCCO1` was tested, and the T/C (dose: 75.0 mg/kg/injection, schedule: Q01DX001 (ip), vehicle: saline) was 97 % of control, the T/C (dose: 150.0 mg/kg/injection, schedule: Q01DX001 (ip), vehicle: saline) was 98 % of control and the T/C (dose: 300.0 mg/kg/injection, schedule: Q01DX001 (ip), vehicle: saline) was 95 % of control.
With `O=[N+]([O-])c1ccc2c(c1)-c1ccccc1/C2=C1\c2ccccc2-c2cc([N+](=O)[O-])ccc21` the T/C (dose: 100.0 mg/kg/injection, schedule: Q01DX005 (ip), vehicle: Klucel (hydroxypropylcellulose) (HPC)) was 105 % of control, the T/C (dose: 100.0 mg/kg/injection, schedule: Q04DX002 (ip), vehicle: Klucel (hydroxypropylcellulose) (HPC)) was 90 % of control and the T/C (dose: 200.0 mg/kg/injection, schedule: Q01DX005 (ip), vehicle: Klucel (hydroxypropylcellulose) (HPC)) was 91 % of control. The T/C (dose: 200.0 mg/kg/injection, schedule: Q04DX002 (ip), vehicle: Klucel (hydroxypropylcellulose) (HPC)) was 104 % of control, the T/C (dose: 400.0 mg/kg/injection, schedule: Q01DX005 (ip), vehicle: Klucel (hydroxypropylcellulose) (HPC)) was 91 % of control and the T/C (dose: 400.0 mg/kg/injection, schedule: Q04DX002 (ip), vehicle: Klucel (hydroxypropylcellulose) (HPC)) was 96 % of control.
In the case of `CCOC(=O)C1=CC=CC1=O`, the T/C (dose: 100.0 mg/kg/injection, schedule: Q04DX003 (ip), vehicle: saline with Tween-80) is reported as 102 % of control, the T/C (dose: 200.0 mg/kg/injection, schedule: Q04DX003 (ip), vehicle: saline with Tween-80) is reported as 95 % of control and the T/C (dose: 400.0 mg/kg/injection, schedule: Q04DX003 (ip), vehicle: saline with Tween-80) is reported as 91 % of control.
In the case of `COc1ccc(/C=C(\NC(C)=O)C(=O)O)cc1`, the T/C [4] is reported as 104 % of control, the T/C [5] is reported as 100 % of control and the T/C [12] is reported as 97 % of control. For the same compound, the T/C [6] was 100 % of control, the T/C [7] was 98 % of control and the T/C [8] was 112 % of control.
With `Oc1ccc(Cl)cc1/C=N/NC(=S)Nc1cccc2cccnc12` the T/C [1] was 111 % of control, the T/C [2] was 100 % of control and the T/C [3] was 91 % of control.
With `O=C1NC(=O)C2(N1)C1CC3CC(C1)CC2C3` (centres undefined) the T/C (dose: 100.0 mg/kg/injection, schedule: Q01DX009 (ip), vehicle: alcohol) was 94 % of control, the T/C (dose: 100.0 mg/kg/injection, schedule: Q04DX003 (ip), vehicle: alcohol) was 96 % of control and the T/C (dose: 200.0 mg/kg/injection, schedule: Q01DX009 (ip), vehicle: alcohol) was 98 % of control. The T/C (dose: 200.0 mg/kg/injection, schedule: Q04DX003 (ip), vehicle: alcohol) was 102 % of control, the T/C (dose: 400.0 mg/kg/injection, schedule: Q01DX009 (ip), vehicle: alcohol) was 87 % of control and the T/C (dose: 400.0 mg/kg/injection, schedule: Q04DX003 (ip), vehicle: alcohol) was 96 % of control.
With `N#CC(C#N)=Cc1cccc([N+](=O)[O-])c1` the T/C (dose: 50.0 mg/kg/injection, schedule: Q01DX001 (ip), vehicle: carboxymethylcellulose (CMC)) was 102 % of control, the T/C (dose: 100.0 mg/kg/injection, schedule: Q01DX001 (ip), vehicle: carboxymethylcellulose (CMC)) was 102 % of control and the T/C [4] was 97 % of control. The T/C [5] was 102 % of control and the T/C [8] was 106 % of control.
`COc1ccc(OC)c(NC(=S)N/N=C(\C)c2ccc(O)c(C)c2)c1` was tested, and the T/C (dose: 12.5 mg/kg/injection, schedule: Q04DX002 (ip), vehicle: Klucel (hydroxypropylcellulose) (HPC)) was 97 % of control and the T/C (dose: 25.0 mg/kg/injection, schedule: Q04DX002 (ip), vehicle: Klucel (hydroxypropylcellulose) (HPC)) was 115 % of control.
`CN(C(=O)Nc1ccc(Cl)cc1[N+](=O)[O-])C1CCCCC1` was tested, and the T/C [4] was 92 % of control, the T/C [12] was 94 % of control and the T/C [7] was 97 % of control.
`O=C(NC(=O)c1ccccc1)C(=O)c1ccccc1` was tested, and the T/C (dose: 100.0 mg/kg/injection, schedule: Q01DX001 (ip), vehicle: saline with Tween-80) was 94 % of control, the T/C (dose: 200.0 mg/kg/injection, schedule: Q01DX001 (ip), vehicle: saline with Tween-80) was 105 % of control and the T/C (dose: 400.0 mg/kg/injection, schedule: Q01DX001 (ip), vehicle: saline with Tween-80) was 87 % of control.
`COc1ccc(C(=S)N2CCN(c3cccc(Cl)c3)CC2)cc1` was tested, and the T/C [1] was 96 % of control, the T/C [2] was 91 % of control and the T/C [3] was 91 % of control.
In the case of `CCOP(=O)(OCC)C1CC(C(C)C)CCC1C` (centres undefined), the T/C (dose: 75.0 mg/kg/injection, schedule: Q01DX001 (ip), vehicle: other) is reported as 93 % of control, the T/C (dose: 150.0 mg/kg/injection, schedule: Q01DX001 (ip), vehicle: other) is reported as 98 % of control and the T/C (dose: 300.0 mg/kg/injection, schedule: Q01DX001 (ip), vehicle: other) is reported as 110 % of control.
